Here are results for one compound from PMC11982498 (Redox Biology, 2025).

One may read the Kd as the concentration at which binding is half-saturated. The low end stands for tighter binding, the high end for weaker binding.

Data set [1] addresses T1, Aβ1-42 (Homo sapiens, UniProt P05067).
T1 construct: Aβ1-42 was purchased from Gill Biochemicals Ltd (Shanghai, China); purchased Gill Biochemicals Ltd (Shanghai, China)
As to the kind of experiment: Thioflavine T fluorescence spectroscopy assay (time course to 96 h). The data set is classed as biochemical. The settings on record: 20 μM compound, Aβ1-42 incubated for 96 h. The procedure:
The Aβ1-42 solutions (100 μM) were co-incubated with B14 (20 μM) or Curcumin (20 μM) at 37 °C protected from light for 96 h. 30 μL of Aβ1-42 solution was taken at different time points (0 h, 10 h, 24 h, 48 h, 72 h, 96 h), mixed fully with 400 μL of ThT solution (15 μM), and incubated in the dark for 30 min. The fluorescence signal was recorded by using a Cary Eclipse fluorescence spectrophotometer (Varian, USA) with the following setting: excitation wavelength at 440 nm, emission wavelength at 480 nm, and slit width of 20 nm.
The Aβ1-42 solutions (100 μM) were co-incubated with B14 (20 μM) and Curcumin (20 μM) at 37 °C protected from light for 96 h. 30 μL of Aβ1-42 solutions were taken at different time points (0 h, 10 h, 24 h, 48 h, 72 h, 96 h), mixed fully with 400 μL of ThT solution (15 μM), and incubated in the dark for 30 min. The fluorescence signal was recorded by a Cary Eclipse fluorescence spectrophotometer (Varian, USA) with excitation wavelength at 440 nm, emission wavelength at 480 nm, and slit width of 20 nm.

For data set [2], the target named is ILPR promoter i-motif. As to the kind of experiment: SPR binding to ILPR promoter i-motif. The settings on record: MES buffer pH 5.5. In general terms: Surface plasmon resonance follows binding to a sensor surface in real time, without labels.
Data set [3] relates to RB (DNA, i motif) GCCGCCCAAAACCCCCCG
As to the kind of experiment: thiazole orange displacement. The settings on record: K+ 100 mM KCl plus potassium phosphate; BPES buffer, pH 5.5, 25 °C; 1 μM DNA, 1 μM TO; displacement only 1 %.

The test system of data set [4] is BAX gene transcription in brain of APP/PS1 mice. The experiment in a line: Real-time RT-PCR of mice brain, BAX. It is filed as in vivo. The procedure: Five months old male APP/PS1 mice, weighing 25–33 g, were purchased from Guangdong Medical Laboratory Animal Center and housed in the Laboratory Animal Center of Sun Yat-sen University (Guangzhou, China) for experimentation. […] The mice were housed in a specific pathogen-free environment with a controlled temperature of 22 ± 1 °C and a 12-h dark/light cycle. The mice were fed with a standard diet, and 30 mice were randomly divided into 6 groups (N = 5). […] Behavioral experiments were then conducted, and tissue specimens were collected for biochemical analysis.
^a -∆∆Ct = -[(Ct value of genes in treated sample - Ct value of genes in control) - (Ct value of β-actin in treated sample - Ct value of β-actin in control)]. ^b F: The relative expression fold.
Following sample homogenization, chloroform was added, and the solution was allowed to have phase separation into an upper aqueous layer (containing RNA), an interphase, and a lower organic layer (containing DNA and proteins). RNA was precipitated from the aqueous phase using isopropanol, while DNA was precipitated from the aqueous-organic interphase using ethanol.
Quantitative real-time polymerase chain reaction (qRT-PCR) was performed using the 2× RealStar SYBR Mixture (GenStar, Cat# A301-10, Guangzhou, China) on a LightCycler 480 II real-time PCR system (Roche, USA). Data were analyzed using the 2^−ΔΔCt method. Actin served as the internal control, and relative mRNA levels were normalized accordingly.

Data set [5] deals with APP/PS1 transgenic mice. The experiment in a line: Nest building test (NBT). The settings on record: B14 10, 20, 40 mg/kg i.p. every other day. The data set is classed as in vivo. The text has this:
Five months old male APP/PS1 mice, weighing 25–33 g, were purchased from Guangdong Medical Laboratory Animal Center and housed in the Laboratory Animal Center of Sun Yat-sen University (Guangzhou, China) for experimentation. All procedures were approved by the Animal Care and Use Committee of Sun Yat-sen University and complied with legal requirements and national guidelines for the care and maintenance of laboratory animals (Approval No. SYSU-IACUC-2024-002032). The mice were housed in a specific pathogen-free environment with a controlled temperature of 22 ± 1 °C and a 12-h dark/light cycle. The mice were fed with a standard diet, and 30 mice were randomly divided into 6 groups (N = 5). Compound B14 was dissolved in saline and administered at doses of 10, 20, or 40 mg/kg. […]
The spatial memory and learning abilities of the mice were assessed using Morris water maze (MWM), novel object recognition (NOR) and nesting experiments (NBT). The anxiety and depressive behaviors were evaluated through the open field test (OFT) and elevated plus maze (EPM). […]
The nest building test (NBT) assesses fine motor dexterity, cognitive function, and emotional states in mice while minimizing stress. […] After this period, photographs were taken of the paper sheets, and the nests built by the mice were scored.

Data set [6] deals with RB promoter i-motif. The experiment in a line: TO displacement assay, RB i-motif. The data set is classed as binding. As to the method:
DNA oligonucleotides were diluted to 1 μM with 1 × PBES buffer at pH 5.5, annealed at 95 °C for 10 min, cooled to room temperature, and stored at 4 °C for future use. TO dye (1 μM) was added to the DNA solution followed with incubation for 1 h. The spectra of 100 μL mixture with addition of different equivalent compounds at 25 °C were recorded based on fluorescence emission (λex = 480 nm).
TO displacement ratio (%) = (F0 − FC) / (F0 − FB) * 100.
F0 and FC were the fluorescence intensity of TO at 536 nm with DNA before and after adding compounds, respectively. FB was the fluorescence intensity of TO at 536 nm with buffer only.

The subject of data set [7] is APP/PS1 transgenic mice. The experiment in a line: Histopathological examination (HE) of vital organs. The settings on record: mouse, in vivo. The text has this: Five months old male APP/PS1 mice, weighing 25–33 g, were purchased from Guangdong Medical Laboratory Animal Center and housed in the Laboratory Animal Center of Sun Yat-sen University (Guangzhou, China) for experimentation. All procedures were approved by the Animal Care and Use Committee of Sun Yat-sen University and complied with legal requirements and national guidelines for the care and maintenance of laboratory animals (Approval No. SYSU-IACUC-2024-002032). The mice were housed in a specific pathogen-free environment with a controlled temperature of 22 ± 1 °C and a 12-h dark/light cycle. The mice were fed with a standard diet, and 30 mice were randomly divided into 6 groups (N = 5). Compound B14 was dissolved in saline and administered at doses of 10, 20, or 40 mg/kg. APP/PS1 male mice were grown until 6 months of age, and then injected intraperitoneally with compound B14 every other day for 60 days. Behavioral experiments were then conducted, and tissue specimens were collected for biochemical analysis.
The mice were sacrificed, with their brains and organs isolated and embedded in paraffin. The brains and organs were then sectioned into 6 μm thin slices. These slices were subjected to H&E or Nissl staining (Servicebio, Guangzhou, China). The stained sections were subsequently imaged and analyzed by using microscopy.
Figure S11. […]

Each structure is given as a SMILES string. Where only a bound is given, the exact number is not on record here.

T1 sequence (P05067 672-713 limits assumed): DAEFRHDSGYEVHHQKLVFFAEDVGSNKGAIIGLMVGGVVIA

Turning to `O=C(CCN1CCOCC1)Nc1ccc2c(c1)c(=O)c1cc(NC(=O)CCN3CCOCC3)ccc1n2-c1ccc2occc2c1` [Compound B14], in data set [1], the “decrease of ThT fluorescence intensity” value was 39.58 ± 2.08%. The dissociation constant Kd in data set [2] was more than 50 µM. Further, the binding entry in data set [3] is listed as “no”. Besides, the “-∆∆Ct, BAX” value in data set [4] (10 mg/kg) was -0.16; in data set [4] (20 mg/kg), 0.08; in data set [4] (40 mg/kg), 0.21. The figures for the “F = 2^-∆∆Ct (relative expression fold), BAX” value in data set [4] (10 mg/kg), in data set [4] (20 mg/kg) and in data set [4] (40 mg/kg) were 1.11, 0.94 and 0.86, respectively. The “nesting scores (NBT)” value in data set [5] was “significantly improved”. For the same compound, the TO displacement ratio in data set [6] was found to be 1%. Besides, the “histopathology of heart, liver, spleen, lungs, kidney” value in data set [7] is recorded as “no significant detrimental effect for these organs”.
